Our source for the IC50 values is patent US9221822B2, “Thiazolopyrimidine modulators as immunosuppressive agents” (Katholieke Universiteit Leuven, K.U.Leuven R&D, priority 2009, dated 2015).

Bounds are passed on as bounds.

The first assay concerns Human peripheral blood mononuclear cells (PBMCs) as Responder cells, RPMI 1788 Stimulator cells. The experiment in a line: Mixed Lymphocyte Reaction (MLR) test. To be noted: Homo sapiens, RPMI-1788, lowest concentration giving 50% inhibition of the MLR; 6 days coculture, 3H-thymidine incorporation. The class given is cell-based. The procedure, abridged:
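Human PBMC responders (0.12×10^6) were cocultured 6 days with mitomycin C-treated RPMI 1788 stimulators (0.045×10^6) and compound in RPMI 1640 with 10% FCS, in triplicate. A ^3H-thymidine pulse on day 5, harvested 18 h later, measured proliferation (cpm), converted to % inhibition versus a compound-free MLR.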
On the technique in general: Incorporation of labelled thymidine or its analogues reports DNA synthesis.
On to `COc1ccc(OCC(=O)N2CCN(c3nc(N)nc4sc(CCc5ccc(C)cc5)nc34)CC2)cc1` [Example 259, 1-(4-(5-amino-2-(4-methylphenethyl)thiazolo[5,4-d]pyrimidin-7-yl)piperazin-1-yl)-2-(4-methoxyphenoxy)ethanone], for which the half-inhibitory concentration (IC50) is 960 nM.

Turning to `Cc1ccc(CCc2nc3c(N4CCN(C(=O)COc5ccc(Cl)cc5)CC4)nc(N)nc3s2)cc1` [Example 260, 1-(4-(5-amino-2-(4-methylphenethyl)thiazolo[5,4-d]pyrimidin-7-yl)piperazin-1-yl)-2-(4-chlorophenoxy)ethanone], the half-maximal inhibitory concentration (IC50) amounted to 820 nM.

With `COc1ccc(OCC(=O)N2CCN(c3nc(N)nc4sc(-c5cccnc5)nc34)CC2)cc1` [Example 271, 1-(4-(5-amino-2-(pyridin-3-yl)thiazolo[5,4-d]pyrimidin-7-yl)piperazin-1-yl)-2-(4-methoxyphenoxy)ethanone], 12 nM corresponded to half-maximal inhibition (IC50).

`Nc1nc(N2CCN(C(=O)COc3ccc(F)cc3)CC2)c2nc(-c3cccnc3)sc2n1` [Example 272, 1-(4-(5-amino-2-(pyridin-3-yl)thiazolo[5,4-d]pyrimidin-7-yl)piperazin-1-yl)-2-(4-fluorophenoxy)ethanone] displayed a half-maximal inhibitory concentration (IC50) of 12 nM.

Take `Nc1nc(N2CCN(C(=O)COc3ccc(OC(F)(F)F)cc3)CC2)c2nc(-c3cccnc3)sc2n1` [Example 273, 1-(4-(5-amino-2-(pyridin-3-yl)thiazolo[5,4-d]pyrimidin-7-yl)piperazin-1-yl)-2-(4-trifluoromethoxyphenoxy)ethanone]: 45 nM corresponded to half-maximal inhibition (IC50).

As for `CC(C)(Oc1ccc(Cl)cc1)C(=O)N1CCN(c2nc(N)nc3sc(-c4cccnc4)nc23)CC1` [Example 274, 1-(4-(5-amino-2-(pyridin-3-yl)thiazolo[5,4-d]pyrimidin-7-yl)piperazin-1-yl)-2-(4-chlorophenoxy)-2-methylpropan-1-one], the half-inhibitory concentration (IC50) was over 10000 nM.

In the case of `Cc1cccc(OCC(=O)N2CCN(c3nc(N)nc4sc(-c5cccnc5)nc34)CC2)c1` [Example 275, 1-(4-(5-amino-2-(pyridin-3-yl)thiazolo[5,4-d]pyrimidin-7-yl)piperazin-1-yl)-2-(m-tolyloxy)ethanone], it took 3 nM to reach half-maximal inhibition (IC50).

`Cc1cccc(NC(=O)N2CCN(c3nc(N)nc4sc(-c5cccnc5)nc34)CC2)c1` [Example 276, 4-(5-amino-2-(pyridin-3-yl)thiazolo[5,4-d]pyrimidin-7-yl)-N-m-tolylpiperazine-1-carboxamide] came in with an IC50 of 1 nM.

`Nc1nc(N2CCN(C(=O)Nc3ccc(Cl)cc3)CC2)c2nc(-c3cccnc3)sc2n1` [Example 277, 4-(5-amino-2-(pyridin-3-yl)thiazolo[5,4-d]pyrimidin-7-yl)-N-(4-chlorophenyl)piperazine-1-carboxamide]: the IC50 was 24 nM.

With `COc1ccc(CNC(=O)N2CCN(c3nc(N)nc4sc(-c5cccnc5)nc34)CC2)cc1` [Example 278, 4-(5-amino-2-(pyridin-3-yl)thiazolo[5,4-d]pyrimidin-7-yl)-N-(4-methoxybenzyl)piperazine-1-carboxamide], the IC50 amounted to 80 nM.

On to `N#Cc1ccc(NC(=O)N2CCN(c3nc(N)nc4sc(-c5cccnc5)nc34)CC2)cc1` [Example 279, 4-(5-amino-2-(pyridin-3-yl)thiazolo[5,4-d]pyrimidin-7-yl)-N-(4-cyanophenyl)piperazine-1-carboxamide], for which the IC50 was 100 nM.

`Nc1nc(N2CCN(C(=O)COc3ccc(Cl)cc3)CC2)c2nc(-c3ccncc3)sc2n1` [Example 281, 1-(4-(5-amino-2-(pyridin-4-yl)thiazolo[5,4-d]pyrimidin-7-yl)piperazin-1-yl)-2-(4-chlorophenoxy)ethanone] showed an IC50 of 41 nM.

`Nc1nc(N2CCN(C(=O)COc3ccc(Cl)cc3)CC2)c2nc(-c3ccccn3)sc2n1` [Example 282, 1-(4-(5-amino-2-(pyridin-2-yl)thiazolo[5,4-d]pyrimidin-7-yl)piperazin-1-yl)-2-(4-chlorophenoxy)ethanone] returned an IC50 of 229 nM.

With `Nc1nc(N2CCN(C(=O)COc3ccc(Cl)cc3)CC2)c2nc(CCCc3ccc(F)cc3)sc2n1` [Example 290, 1-(4-(5-amino-2-(3-(4-fluorophenyl)propyl)thiazolo[5,4-d]pyrimidin-7-yl)piperazin-1-yl)-2-(4-chlorophenoxy)ethanone], half-maximal inhibition (IC50) was put at 960 nM.

As to `COc1ccc(OCC(=O)N2CCN(c3nc(N)nc4sc(CCCc5ccc(F)cc5)nc34)CC2)cc1` [Example 291, 1-(4-(5-amino-2-(3-(4-fluorophenyl)propyl)thiazolo[5,4-d]pyrimidin-7-yl)piperazin-1-yl)-2-(4-methoxyphenoxy)ethanone], half-maximal inhibition (IC50) required 1110 nM.

Regarding `Nc1nc(N2CCN(C(=O)COc3ccc(Cl)cc3)CC2)c2nc(CCCCc3ccc(F)cc3)sc2n1` [Example 292, 1-(4-(5-amino-2-(4-(4-fluorophenyl)butyl)thiazolo[5,4-d]pyrimidin-7-yl)piperazin-1-yl)-2-(4-chlorophenoxy)ethanone], the midpoint of inhibition, the IC50, lay at 920 nM.

Consider `COc1ccc(OCC(=O)N2CCN(c3nc(N)nc4sc(CCCCc5ccc(F)cc5)nc34)CC2)cc1` [Example 293, 1-(4-(5-amino-2-(4-(4-fluorophenyl)butyl)thiazolo[5,4-d]pyrimidin-7-yl)piperazin-1-yl)-2-(4-methoxyphenoxy)ethanone], for which the half-inhibitory concentration (IC50) was found to be 930 nM.

For the compound `COc1ccc(OCC(=O)N2CCN(c3nc(N)nc4sc(-c5ccc(C)cc5)nc34)CC2)cc1` [Example 294, 1-(4-(5-amino-2-p-tolylthiazolo[5,4-d]pyrimidin-7-yl)piperazin-1-yl)-2-(4-methoxyphenoxy)ethanone], half-maximal inhibition (IC50) was put at 750 nM.

Compound `Cc1ccc(-c2nc3c(N4CCN(C(=O)COc5ccc(Cl)cc5)CC4)nc(N)nc3s2)cc1` [Example 295, 1-(4-(5-amino-2-p-tolylthiazolo[5,4-d]pyrimidin-7-yl)piperazin-1-yl)-2-(4-chlorophenoxy)ethanone] came in with a half-maximal inhibitory concentration (IC50) of 350 nM.

The compound `CCCCCc1nc2c(N3CCN(C(=O)COc4ccc(OC)cc4)CC3)nc(N)nc2s1` [Example 296, 1-(4-(5-amino-2-pentylthiazolo[5,4-d]pyrimidin-7-yl)piperazin-1-yl)-2-(4-methoxyphenoxy)ethanone] displayed a concentration for half-maximal inhibition (IC50) of 7590 nM.

Take `CCCCCc1nc2c(N3CCN(C(=O)COc4ccc(Cl)cc4)CC3)nc(N)nc2s1` [Example 297, 1-(4-(5-amino-2-pentylthiazolo[5,4-d]pyrimidin-7-yl)piperazin-1-yl)-2-(4-chlorophenoxy)ethanone]: the IC50 was 690 nM.

`COc1ccc(OCC(=O)N2CCN(c3nc(N)nc4sc(CCc5ccc(Br)cc5)nc34)CC2)cc1` [Example 298, 1-(4-(5-amino-2-(4-bromophenethyl)thiazolo[5,4-d]pyrimidin-7-yl)piperazin-1-yl)-2-(4-methoxyphenoxy)ethanone] displayed an IC50 of 1190 nM.

Regarding `Nc1nc(N2CCN(C(=O)COc3ccc(Cl)cc3)CC2)c2nc(CCc3ccc(Br)cc3)sc2n1` [Example 299, 1-(4-(5-amino-2-(4-bromophenethyl)thiazolo[5,4-d]pyrimidin-7-yl)piperazin-1-yl)-2-(4-chlorophenoxy)ethanone], the half-maximal inhibitory concentration (IC50) came out at 3110 nM.

`COc1ccc(OCC(=O)N2CCN(c3ncnc4sc(-c5ccc(F)cc5)nc34)CC2)cc1` [Example 300, 1-(4-(2-(4-fluorophenyl)thiazolo[5,4-d]pyrimidin-7-yl)piperazin-1-yl)-2-(4-methoxyphenoxy)ethanone] displayed a 50% inhibitory concentration (IC50) of 5530 nM.

For `O=C(COc1ccc(Cl)cc1)N1CCN(c2ncnc3sc(-c4ccc(F)cc4)nc23)CC1` [Example 301, 1-(4-(2-(4-fluorophenyl)thiazolo[5,4-d]pyrimidin-7-yl)piperazin-1-yl)-2-(4-chlorophenoxy)ethanone], the midpoint of inhibition, the IC50, lay at 670 nM.

With `O=C(COc1ccc(Cl)cc1)N1CCN(c2ncnc3sc(CCc4ccc(F)cc4)nc23)CC1` [Example 303, 1-(4-(2-(4-fluorophenethyl)thiazolo[5,4-d]pyrimidin-7-yl)piperazin-1-yl)-2-(4-chlorophenoxy)ethanone], 5590 nM corresponded to half-maximal inhibition (IC50).

`O=C(COc1ccc(Cl)cc1)N1CCN(c2ncnc3sc(-c4ccc(F)cc4)cc23)CC1` [Example 312, 2-(4-chlorophenoxy)-1-(4-(6-(4-fluorophenyl)thieno[2,3-d]pyrimidin-4-yl)piperazin-1-yl)ethanone] returned an IC50 of 6350 nM.

As to `CCCCc1nc(N2CCN(C(=O)COc3ccc(Cl)cc3)CC2)c2cc(-c3ccc(F)cc3)sc2n1` [Example 313, 1-(4-(2-butyl-6-(4-fluorophenyl)thieno[2,3-d]pyrimidin-4-yl)piperazin-1-yl)-2-(4-chlorophenoxy)ethanone], inhibition was half-maximal at 1330 nM (IC50).

Regarding `Cc1nc(N2CCN(C(=O)COc3ccc(Cl)cc3)CC2)c2cc(-c3ccc(F)cc3)sc2n1` [Example 325, 2-(4-chlorophenoxy)-1-(4-(6-(4-fluorophenyl)-2-methylthieno[2,3-d]pyrimidin-4-yl)piperazin-1-yl)ethanone], the concentration for half-maximal inhibition (IC50) is 3390 nM.

Turning to `Nc1nc(N2CCN(C(=O)COc3ccc(Cl)cc3)CC2)c2cc(-c3ccc(F)cc3)sc2n1` [Example 326, 1-(4-(2-amino-6-(4-fluorophenyl)thieno[2,3-d]pyrimidin-4-yl)piperazin-1-yl)-2-(4-chlorophenoxy)ethanone], the IC50 was found to be 700 nM.

The assay is the same for the next values; noted with them: lowest concentration giving 50% inhibition of the MLR; 6 days coculture, 3H-thymidine incorporation.
Consider `COc1ccc(OCC(=O)N2CCN(c3nc(N)nc4sc(-c5ccc(Cl)cc5)nc34)CC2)cc1` [Example 270, 1-(4-(5-amino-2-(4-chlorophenyl)thiazolo[5,4-d]pyrimidin-7-yl)piperazin-1-yl)-2-(4-methoxyphenoxy)ethanone], for which the IC50 turned out to be 150 nM.

For `COc1ccc(OCC(=O)N2CCN(c3nc(N)nc4sc(-c5ccc(Cl)cc5)nc34)CC2)cc1` [Example 280, 1-(4-(5-amino-2-(4-chlorophenyl)thiazolo[5,4-d]pyrimidin-7-yl)piperazin-1-yl)-2-(4-methoxyphenoxy)ethanone], the IC50 was over 10000 nM.

As a reminder, the IC50 is the point on the concentration scale where inhibition reaches its midpoint. A high value points to weaker potency.
